Measurements as given in patent EP3815699A1, “NEW MEANS AND METHODS FOR THERAPY AND DIAGNOSIS OF […]” (Technische Universität München, priority 2019, dated 2021).
pIC50: −log10 of the molar value. “Also recorded” adds a separate entry of the source. Like-named read-outs stand apart in the source and are kept apart here.

Tests used:
[1] = molecular target: His/HA-SUMO-2 (stably expressed in HepaRG cells) (UniProt P61956); assay: Ni-NTA purification of covalent His/HA-SUMO-2 conjugates from infected HepaRG cells, anti-E2A immunoblot, densitometry normalised to E2A levels
[2] = tested on: HAdV-C5; assay: Virus yield / progeny production by quantitative E2A immunofluorescence staining in 293 cells (Fig. 1B); format: cell-based
Protocol: (§1) • Figure 1: ATO efficiently reduces HAdV infectivity (cf. Example 1). H1299 cells were infected with HAdV-C5 wt at a multiplicity of 5 FFU/cell, treated with the depicted concentrations of ATO at 2 h.p.i., fixed 48 h.p.i. with 4 % PFA and double labeled with mAb B6-8 (α-E2A) and pAb L133 (α-Capsid). Primary antibodies were detected using Alexa488 (E2A, green) and Alexa568 (Capsid, red) conjugated secondary antibodies. (A) The number of E2A and Capsid expressing cells, respectively, was counted in n=40 overview pictures (not shown), normalized to untreated, infected cells, and represented in bar charts. Bar charts represent average values and standard deviations based on four independent experiments. (B) H1299 cells were infected with HAdV-C5 at a multiplicity of 20 FFU/cell, and treated with the depicted concentrations of ATO at 2 h.p.i.. Viral particles were harvested 48 h.p.i. and virus yield was determined by quantitative E2A immunofluorescence staining in 293 cells. Bar charts represent average values and standard deviations based on three independent experiments. Statistically significant differences were determined using a two-sided Welch's t-test. *: P ≤ 0.05, **: P ≤ 0.01, ***: P ≤ 0.001, ****: P ≤ 0.0001. • Figure 2: ATO induces a dose dependent reduction of HAdV infectivity with minor effects on cell viability (cf. Example 2). […] 24 or 48 h.p.i., cell viability was assessed using the Promega CellTiter-Blue Cell Viability Assay system, prior to fixation with 4 % PFA and cells were double labeled with mAb B6-8 (α-E2A) and pAb L133 (α-Capsid). Primary antibodies were detected using Alexa488 (E2A, green) and Alexa647 (Capsid, red) conjugated secondary antibodies. Fluorescence intensity was measured using a Tecan Infinite 200M plate reader using an excitation and emission wavelength of 488 and 520nm for Alexa488 and 640 and 670nm for Alexa647 respectively. Fluorescence intensity was normalized to untreated, infected cells at 48h p.i.. xy charts represent average values and standard deviations based on three independent experiments measured in triplicates. […]

[3] = tested on: H1299 cells; format: cell-based, Human; conditions: lower panel
Protocol: as §1

[4] = tested on: HAdV-C5 wt; assay: Tecan plate reader measurement of E2A and capsid immunofluorescence intensity in infected H1299 cells (Fig. 2A); format: cell-based
Protocol: (§2) • Figure 1: ATO efficiently reduces HAdV infectivity (cf. Example 1). H1299 cells were infected with HAdV-C5 wt at a multiplicity of 5 FFU/cell, treated with the depicted concentrations of ATO at 2 h.p.i., fixed 48 h.p.i. with 4 % PFA and double labeled with mAb B6-8 (α-E2A) and pAb L133 (α-Capsid). Primary antibodies were detected using Alexa488 (E2A, green) and Alexa568 (Capsid, red) conjugated secondary antibodies. (A) The number of E2A and Capsid expressing cells, respectively, was counted in n=40 overview pictures (not shown), normalized to untreated, infected cells, and represented in bar charts. Bar charts represent average values and standard deviations based on four independent experiments. (B) H1299 cells were infected with HAdV-C5 at a multiplicity of 20 FFU/cell, and treated with the depicted concentrations of ATO at 2 h.p.i.. Viral particles were harvested 48 h.p.i. and virus yield was determined by quantitative E2A immunofluorescence staining in 293 cells. Bar charts represent average values and standard deviations based on three independent experiments. Statistically significant differences were determined using a two-sided Welch's t-test. *: P ≤ 0.05, **: P ≤ 0.01, ***: P ≤ 0.001, ****: P ≤ 0.0001. • Figure 2: ATO induces a dose dependent reduction of HAdV infectivity with minor effects on cell viability (cf. Example 2). (A) H1299 cells were infected with HAdV-C5 wt at a multiplicity of 20 FFU/cell and treated with the depicted concentrations of ATO at 2 h.p.i.. 24 or 48 h.p.i., cell viability was assessed using the Promega CellTiter-Blue Cell Viability Assay system, prior to fixation with 4 % PFA and cells were double labeled with mAb B6-8 (α-E2A) and pAb L133 (α-Capsid). Primary antibodies were detected using Alexa488 (E2A, green) and Alexa647 (Capsid, red) conjugated secondary antibodies. Fluorescence intensity was measured using a Tecan Infinite 200M plate reader using an excitation and emission wavelength of 488 and 520nm for Alexa488 and 640 and 670nm for Alexa647 respectively. Fluorescence intensity was normalized to untreated, infected cells at 48h p.i.. xy charts represent average values and standard deviations based on three independent experiments measured in triplicates. (B) H1299 cells were infected with an HAdV-C5 delta E3 virus, encoding a CMV promoter driven eGFP expression cassette, at a multiplicity of 20FFU/cell and treated with the depicted concentrations of ATO at 2h p.i.; 24 or 48 h p.i. cell viability was assessed using the Promega CellTiter-Blue Cell Viability Assay system, and GFP fluorescence intensity was measured using a Tecan Infinite 200M plate reader using an excitation and emission wavelength of 488 and 520nm. Fluorescence intensity was normalized to untreated, infected cells at 48h p.i.; xy charts represent average values and standard deviations based on three independent experiments measured in triplicates. (C) H1299 cells were infected with an eGFP expressing HAdV-C5 based first generation adenoviral vector at a multiplicity of 20 FFU/cell and treated with the depicted concentrations of ATO at 2h p.i.; 24 or 48h p.i., cell viability was assessed using the Promega CellTiter-Blue Cell Viability Assay system, and GFP fluorescence intensity was measured using a Tecan Infinite 200M plate reader using an excitation and emission wavelength of 488 and 520nm. Fluorescence intensity was normalized to untreated, infected cells at 48h p..i.; xy charts represent average values and standard deviations based on three independent experiments measured in triplicates. (D) A549 cells were infected with an HAdV-C5 delta E3 virus, encoding a CMV promoter driven eGFP expression cassette, at a multiplicity of 20FFU/cell and treated with the depicted concentrations of ATO at 2h p.i.. GFP-fluorescence, as well as cell growth via phase contrast-imaging was assessed for 48 h with a 2h increment using an IncuCyte S3 Live-Cell Analysis System. […]

[5] = tested on: HAdV-C5 wt; assay: Native agarose gel electrophoresis capsid formation assay (Fig. 3D); format: cell-based
[6] = tested on: eGFP expressing HAdV-C5 based first generation adenoviral vector; assay: GFP fluorescence of non-replicating adenoviral vector in H1299 cells (Fig. 2C); format: cell-based; conditions: for GFP expression compared to the untreated control: 8µM ATO; for pIC50: read-out: IC50 (GFP expression)
Protocol: as §1, with “triplicates. (B) H1299 cells were infected with an HAdV-C5 delta E3 virus, encoding a CMV promoter driven eGFP expression cassette, at a multiplicity of 20FFU/cell and treated with the depicted concentrations of ATO at 2h p.i.; 24 or 48 h p.i. cell viability was assessed using the Promega CellTiter-Blue Cell Viability Assay system, and GFP fluorescence intensity was measured using a Tecan Infinite 200M plate reader using an excitation and emission wavelength of 488 and 520nm. Fluorescence intensity was normalized to untreated, infected cells at 48h p.i.; xy charts represent average values and standard deviations based on three independent experiments measured in triplicates.” for “triplicates.”

[7] = tested on: HAdV-C5 wt; assay: Immunofluorescence count of HAdV replication centers marked by E2A (Fig. 4B); format: cell-based; conditions: HAdV infected cells
[8] = tested on: HAdV-C5 delta E3 virus, encoding a CMV promoter driven eGFP expression cassette; assay: GFP fluorescence of replication competent GFP-expressing virus in H1299 cells (Fig. 2B); format: cell-based; conditions: for pIC50: read-out: IC50 (HAdV infection, GFP)
Protocol: as §2, with “520nm.” for “520nm. Fluorescence intensity was normalized to untreated, infected cells at 48h p..i.; xy charts represent average values and standard deviations based on three independent experiments measured in triplicates. (D) A549 cells were infected with an HAdV-C5 delta E3 virus, encoding a CMV promoter driven eGFP expression cassette, at a multiplicity of 20FFU/cell and treated with the depicted concentrations of ATO at 2h p.i.. GFP-fluorescence, as well as cell growth via phase contrast-imaging was assessed for 48 h with a 2h increment using an IncuCyte S3 Live-Cell Analysis System.”

[9] = tested on: HAdV-C5 wt; assay: Immunofluorescence count of E2A and capsid expressing infected cells (Fig. 1A); format: cell-based
Protocol: as §1, with “triplicates. (B) H1299 cells were infected with an HAdV-C5 delta E3 virus, encoding a CMV promoter driven eGFP expression cassette, at a multiplicity of 20FFU/cell and treated with the depicted concentrations of ATO at 2h p.i.; 24 or 48 h p.i. cell viability was assessed using the Promega CellTiter-Blue Cell Viability Assay system, and GFP fluorescence intensity was measured using a Tecan Infinite 200M plate reader using an excitation and emission wavelength of 488 and 520nm. Fluorescence intensity was normalized to untreated, infected cells at 48h p.i.; xy charts represent average values and standard deviations based on three independent experiments measured in triplicates.” for “triplicates.”

[10] = tested on: HAdV-C5 wt; assay: Western blot of viral protein expression (Fig. 3C); format: cell-based; conditions: 1 and 2µM ATO
[11] = tested on: PML-NBs; assay: Immunofluorescence count of PML-NBs per cell in uninfected H1299 cells (Fig. 4A); format: cell-based, Human; conditions: non-infected cells
[12] = tested on: HAdV-C5 wt; assay: Quantitative RT-PCR of viral E1A and Hexon mRNA (Fig. 3B); format: cell-based; conditions: 2µM ATO, 48h
[13] = tested on: HAdV-C5 delta E3 virus, encoding a CMV promoter driven eGFP expression cassette; assay: IncuCyte live-cell imaging, real-time kinetics of GFP expression (Fig. 2D); format: cell-based; conditions: 60h p.i., A549 cells
[14] = ATO concentration not stated at the place

PML-NBs, sequence (P29590 1-418 limits assumed): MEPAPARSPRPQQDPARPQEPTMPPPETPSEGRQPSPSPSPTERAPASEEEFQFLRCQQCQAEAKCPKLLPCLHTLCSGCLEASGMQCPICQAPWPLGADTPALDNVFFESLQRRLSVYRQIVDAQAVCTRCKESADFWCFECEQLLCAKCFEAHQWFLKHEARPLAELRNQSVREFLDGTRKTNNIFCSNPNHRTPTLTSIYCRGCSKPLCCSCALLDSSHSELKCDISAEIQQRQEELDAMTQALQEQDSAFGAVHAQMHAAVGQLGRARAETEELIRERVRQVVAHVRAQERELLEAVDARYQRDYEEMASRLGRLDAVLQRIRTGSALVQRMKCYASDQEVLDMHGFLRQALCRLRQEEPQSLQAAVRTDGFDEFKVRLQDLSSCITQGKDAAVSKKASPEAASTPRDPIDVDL

## E2A K94/132/202R, untagged (pCMX3b-E2AK94/132/202R / pE2A-SCM, or expressed from HAdV E2A SCM mutant virus) (from UniProt P03265 1-529)
[1]
  reduction of E2A SUMOylation against HAdV wt infection: 70%

## arsenic trioxide [ATO]
[2]; 1µM ATO, H1299, 20 FFU/cell, harvested 48 h.p.i.
  reduction of virus yield: 80%
[2]; 2µM ATO, compared to non-treated infected control cells
  virus particle synthesis / virus yield: abolished; also recorded: completely abolishing
[2]; ATO concentration not given
  reduction in virus yield: 80%
[3]; H1299 infected with HAdV-C5 wt, ATO 0-10 µM, Fig. 2A
  cellular cytotoxicity of ATO: no clear effect
[3]; H1299 infected with non-replicating eGFP vector, ATO 0-8µM, Fig. 2C
  cellular cytotoxicity of ATO: no clear effect
[3]; H1299 infected with replication competent HAdV-GFP, Fig. 2B
  cellular cytotoxicity of ATO: no clear effect
[4]; 2µM ATO, 48h p.i.
  reduction of capsid expression: 40%
[4]; 4µM ATO, 24h p.i.
  reduction of E2A protein expression: more than 50%
[4]; 4µM ATO, 24h p.i., Fig. 2A
  E2A expression compared to the untreated control: less than 50%
[4]; 4µM ATO, 48h p.i.
  capsid detection / capsid expression: complete loss
[4]; 4µM ATO, 48h p.i., remaining expression
  E2A expression reduced to: 60%
[4]; 8µM ATO, 24h p.i., Fig. 2A
  HAdV E2A protein expression: completely block; also recorded: completely blocking
[4]; 8µM ATO, 48h p.i.
  E2A expression: not detectable; also recorded: completely blocking
  reduction of E2A protein expression: up to 60%
[4]; 24h p.i., Fig. 2A, read-out: IC50 (E2A expression)
  pIC50: 5.72
[4]; 48h p.i., Fig. 2A, read-out: IC50 (E2A expression)
  pIC50: 5.39
[4]; 48h p.i., Fig. 2A, read-out: IC50 (capsid expression)
  pIC50: 5.68
[5]
  signal obtained after capsid staining (native gel assay): significantly reduced
[5]; denatured input lysates, right panel
  capsid protein expression: reduced
[6]; 24h p.i.
  GFP expression compared to the untreated control: Less than 50%
  pIC50: 5.19
[6]; 48h p.i.
  GFP expression compared to the untreated control: Less than 50%
  pIC50: 4.99
[7]
  RC in number (replication centers): significant reduction
[8]; 2µM ATO, 48h p.i.
  inhibition of adenoviral infection: more than 50%
[8]; 4µM ATO, 24h p.i.
  inhibition of adenoviral infection: up to 75%
[8]; 4µM ATO, 48h p.i.
  inhibition of adenoviral infection: more than 75%
[8]; 24h p.i.
  pIC50: 5.79
[8]; 48 h p.i.
  pIC50: 5.93
[9]; 1µM ATO, H1299, 5 FFU/cell, ATO at 2 h.p.i., 48 h.p.i.
  reduction of early viral DNA binding protein E2A expression: 40%
[9]; 2.0µM ATO, H1299, 5 FFU/cell, ATO at 2 h.p.i., 48 h.p.i.
  inhibition of late capsid protein expression: ~80%
[9]; [14]
  reduction in cells expressing E2A: up to 40%
  reduction in cells expressing capsid: up to 80%
[10]
  E1B-55K viral protein: decrease
  E4orf6 viral protein: decrease
  expression of the early viral protein E2A: decrease
  late capsid and capsid associated proteins: decrease
[10]; 48 h.p.i.
  viral early and late protein synthesis: significantly impaired
[11]
  number of PML-NBs: significantly decreases
[12]
  inhibition of Hexon viral mRNA expression: 60%
[13]
  reduction of GFP expression / viral load over time: four-fold
